1 compound from patent publication US6444235B1, “Canelo products and methods of making and using same” (bioActiva microtechne, priority 1999, dated 2002) can be followed below.

SMILES strings stand for the structures.

This test has as its system p-388 (linfocitic leukemia). Description: biological activity on P-388 leukemia cultures. Type of test: cell-based.

For `O=C1c2c(O)cc(O)cc2O[C@H](c2ccc(O)c(O)c2)[C@H]1O` [taxifoline], the “anticarcinogenic activity on P-388 cultures (leufocytic leukemia)” value is “has shown anticarcinogenic activity”.
